Tested on: subjects with insomnia related to major depressive disorder
Experiment: DREAMDD clinical study: Clinical Global Impression (Severity 1=normal to 7=most extremely depressed; Global Improvement 1=very much improved to 7=very much worse)
Format: in vivo, human
Conditions: for CGI - Global Improvement, Mean (SD) / CGI - Global Improvement, Median / CGI - Severity, Change from Baseline, Mean (SD) / CGI - Severity, Change from Baseline, Median / CGI - Severity, Observed Value, Mean (SD) / CGI - Severity, Observed Value, Median / CGI - Severity, Change from Baseline, Least Squares Mean (SE): ITT; for CGI - Severity, Change from Baseline, Least Squares Mean (SE): ANCOVA
Protocol: Depression Response to Eszopiclone in Adults With Major Depressive Disorder (DREAMDD): A Randomized, Double-Blind, Placebo-Controlled, Parallel-Group, 8-Week, Safety and Efficacy Study of Eszopiclone 3 mg Compared to Placebo in Subjects with Insomnia Related to Major Depressive Disorder
This study was a double-blind randomized, placebo-controlled, parallel group study. […] All subjects must satisfy DSM-IV criteria for insomnia related to major depression.
Sleep, Depression, and Productivity Questionnaires and Clinical Global Impression: The following questionnaires were administered as listed below. • Epworth Sleepiness Scale (ESS): ESS was completed by the subject at Visits 2-10. The ESS is a subjective assessment of the likelihood of falling asleep in various situations. • Insomnia Severity Index (ISI): ISI was completed by the subject at Visits 3, 5, 7, 9 and 10. The ISI is a subjective assessment of sleep quality, restedness/refreshness upon arising, daytime fatigue, attention/concentration and relationship and mood disturbances. • Work Limitations Questionnaire (WLQ): WLQ was completed by the subject at Visits 3, 5, 7, 9, and 10. The WLQ is a validated self-report instrument for measuring the degree to which chronic health problems interfere with ability to perform job roles, addressing the content of the job through a demand-level methodology. • Hamilton Depression-17: HAM-D-17 was administered via IVRS at screening and rated by a trained clinician at Visits 3, 7, 9, and 10. • SF-36: SF-36 was completed by the subject at Visits 3, 7, 9 and 10. The SF-36 represents multiple operational definitions of health, including function and dysfunction, distress and well-being, objective reports and subjective ratings, and both favorable and unfavorable self-evaluations of general health status. • Clinical Global Impression (CGI): CGI was completed by the investigator at Visits 3-10 The CGI is the investigator's subjective assessment of improvement in the subject's depressive symptoms. The response on the CGI at Visit 7 (Week 4 of double-blind treatment) was used by the investigator to assess the need for increasing the dose of fluoxetine to 40 mg daily (in the morning). […] Study Conduct
Clinical Global Impression: In this test, a medical professional rates the patient's depression and whether the improvement in depression is due to the drug treatment. Question 1) Severity: Considering your total clinical experience with this particular population, how depressed is the patient at this time? Respond by indicating 1=normal, not at all depressed, 2=borderline depressed, 3=mildly depressed, 4=moderately depressed, 5=markedly depressed, 6=severely depressed, or 7=among the most extremely depressed patients. Question 2) Global Improvement: Rate total improvement whether or not, in your judgment, it is due entirely to drug treatment. Compared to his/her condition at Visit 3, how much has he/she changed?
Methods: Patients who met DSM-IV criteria for new MDD and insomnia received fluoxetine 20 mg QAM plus either eszopiclone 3 mg (n=275) or placebo (n=270) nightly for 8 weeks. Efficacy was assessed using HAMD17 and Clinical Global Impression Improvement (CGI-I) and Severity (CGI-S). Response=50% decrease from baseline HAMD17; remission=HAMD17≦7.

[1] = Visit 4 (Week 1), 3 mg nightly + fluoxetine
[2] = Visit 5 (Week 2), 3 mg nightly + fluoxetine
[3] = Visit 6 (Week 3), 3 mg nightly + fluoxetine
[4] = Visit 7 (Week 4), 3 mg nightly + fluoxetine
[5] = Visit 8 (Week 6), 3 mg nightly + fluoxetine
[6] = Visit 9 (Week 8), 3 mg nightly + fluoxetine
[7] = Visit 10 (EOT; Week 10, after single-blind wash-out), eszopiclone 3 mg group

`CN1CCN(C(=O)OC2c3nccnc3C(=O)N2c2ccc(Cl)cn2)CC1` (single isomer, unassigned; (+)) [Eszopiclone, (+) 6-(5-chloro-2-pyridinyl)-6,7-dihydro-7-oxo-5H-pyrrolo[3,4b]pyrazin-5-yl 4-methylpiperazine-1-carboxylate] was tested, and the “CGI - Global Improvement, Mean (SD)” value [1] was 3.3 (0.8), the “CGI - Global Improvement, Median” value [1] was 3.0 and the “CGI - Severity, Change from Baseline, Mean (SD)” value (shortened to “CGI - Severity, Change … (SD)”) [1] was −0.3 (0.7). The “CGI - Severity, Change from Baseline, Median” value [1] was 0.0, the “CGI - Severity, Observed Value, Mean (SD)” value [1] was 4.0 (0.7) and the “CGI - Severity, Observed Value, Median” value [1] was 4.0. For the same compound, the “CGI - Severity, Change from Baseline, Least Squares Mean (SE)” value (shortened to “CGI - Severity, Change … (SE)”) [1] was −0.3 (0.0), the “CGI - Global Improvement, Mean (SD)” value [2] was 2.9 (0.8) and the “CGI - Global Improvement, Median” value [2] was 3.0. The “CGI - Severity, Change … (SD)” value [2] was −0.8 (0.9), the “CGI - Severity, Change from Baseline, Median” value [2] was −1.0 and the “CGI - Severity, Observed Value, Mean (SD)” value [2] was 3.6 (0.9). The “CGI - Severity, Observed Value, Median” value [2] was 4.0, the “CGI - Severity, Change … (SE)” value [2] was −0.8 (0.1) and the “CGI - Global Improvement, Mean (SD)” value [3] was 2.6 (0.9). The “CGI - Global Improvement, Median” value [3] was 3.0, the “CGI - Severity, Change … (SD)” value [3] was −1.1 (1.0) and the “CGI - Severity, Change from Baseline, Median” value [3] was −1.0. For the same compound, the “CGI - Severity, Observed Value, Mean (SD)” value [3] was 3.2 (1.0), the “CGI - Severity, Observed Value, Median” value [3] was 3.0 and the “CGI - Severity, Change … (SE)” value [3] was −1.1 (0.1). The “CGI - Global Improvement, Mean (SD)” value [4] was 2.4 (1.0), the “CGI - Global Improvement, Median” value [4] was 2.0 and the “CGI - Severity, Change … (SD)” value [4] was −1.4 (1.1). The “CGI - Severity, Change from Baseline, Median” value [4] was −1.0, the “CGI - Severity, Observed Value, Mean (SD)” value [4] was 3.0 (1.1) and the “CGI - Severity, Observed Value, Median” value [4] was 3.0. The “CGI - Severity, Change … (SE)” value [4] was −1.3 (0.1), the “CGI - Global Improvement, Mean (SD)” value [5] was 1.9 (0.9) and the “CGI - Global Improvement, Median” value [5] was 2.0. The “CGI - Severity, Change … (SD)” value [5] was −1.8 (1.2), the “CGI - Severity, Change from Baseline, Median” value [5] was −2.0 and the “CGI - Severity, Observed Value, Mean (SD)” value [5] was 2.5 (1.0). For the same compound, the “CGI - Severity, Observed Value, Median” value [5] was 2.5, the “CGI - Severity, Change … (SE)” value [5] was −1.8 (0.1) and the “CGI - Global Improvement, Mean (SD)” value [6] was 1.9 (1.0). The “CGI - Global Improvement, Median” value [6] was 2.0, the “CGI - Severity, Change … (SD)” value [6] was −1.9 (1.3) and the “CGI - Severity, Change from Baseline, Median” value [6] was −2.0. For the same compound, the “CGI - Severity, Observed Value, Mean (SD)” value [6] was 2.4 (1.2), the “CGI - Severity, Observed Value, Median” value [6] was 2.0 and the “CGI - Severity, Change … (SE)” value [6] was −1.8 (0.1). For the same compound, the “CGI - Severity, Change … (SE)” value [7] was −2.2 (0.1), the “CGI - Global Improvement, Mean (SD)” value [7] was 1.6 (0.9) and the “CGI - Global Improvement, Median” value [7] was 1.0. For the same compound, the “CGI - Severity, Change … (SD)” value [7] was −2.3 (1.2), the “CGI - Severity, Change from Baseline, Median” value [7] was −2.0 and the “CGI - Severity, Observed Value, Mean (SD)” value [7] was 2.0 (1.0). For the same compound, the “CGI - Severity, Observed Value, Median” value [7] was 2.0 and the “CGI-I and CGI-S scores versus placebo” value (p<0.05, 3 mg nightly + fluoxetine) was “significantly greater”.

Reference: patent US8097625B2, “Combination of sedative and a neurotransmitter modulator, and methods for improving sleep quality and treating depression” (priority 2003, dated 2012)
